Target: T1, urease of intact Proteus mirabilis cells (Proteus mirabilis, UniProt P17086)
T1 construct: using intact Proteus mirabilis cells as the source of urease; endogenous in cells; host or cells: intact Proteus mirabilis cells
Experiment: anti-urease potency using intact Proteus mirabilis cells
Assay type: cell-based
Conditions: 40 minutes preincubation, pH 8.0; ammonia formed in five minutes after addition of urea; read-out: concentration evincing 50% inhibition of the urease of intact Proteus mirabilis cells
Procedure: The anti-urease potency of the compound of this invention was determined using intact Proteus mirabilis cells as the source of urease. Compounds were preincubated with Proteus mirabilis cells suspended in a saline solution (0.1 molar) buffered with 0.1 molar tris(hydroxymethyl)aminomethane (pH 8.0). After 40 minutes preincubation, the remaining urease activity was determined by collecting the ammonia formed in five minutes after the addition of the substrate, urea. Ammonia assays were carried out according to the procedure of Seligson and Seligson [J. Lab. Clin. Med. 38, 324-330 (1951)]. Percent inhibition was calculated by comparing the amount of ammonia generated by cells preincubated with 8-[(4-aminophenyl)sulfonyl]amino-2-naphthalenyl phosphorodiamidate with the controls in which preincubation was carried out in the absence of compound.

T1 sequence (P17088 whole entry): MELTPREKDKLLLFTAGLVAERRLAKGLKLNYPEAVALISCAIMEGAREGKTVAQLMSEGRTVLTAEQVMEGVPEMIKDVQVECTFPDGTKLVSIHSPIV
T1 sequence (P17087 whole entry, further chain): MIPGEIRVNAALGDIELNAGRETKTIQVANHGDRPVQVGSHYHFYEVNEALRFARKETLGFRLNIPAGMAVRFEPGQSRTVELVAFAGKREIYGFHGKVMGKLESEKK
T1 sequence (P17086 whole entry): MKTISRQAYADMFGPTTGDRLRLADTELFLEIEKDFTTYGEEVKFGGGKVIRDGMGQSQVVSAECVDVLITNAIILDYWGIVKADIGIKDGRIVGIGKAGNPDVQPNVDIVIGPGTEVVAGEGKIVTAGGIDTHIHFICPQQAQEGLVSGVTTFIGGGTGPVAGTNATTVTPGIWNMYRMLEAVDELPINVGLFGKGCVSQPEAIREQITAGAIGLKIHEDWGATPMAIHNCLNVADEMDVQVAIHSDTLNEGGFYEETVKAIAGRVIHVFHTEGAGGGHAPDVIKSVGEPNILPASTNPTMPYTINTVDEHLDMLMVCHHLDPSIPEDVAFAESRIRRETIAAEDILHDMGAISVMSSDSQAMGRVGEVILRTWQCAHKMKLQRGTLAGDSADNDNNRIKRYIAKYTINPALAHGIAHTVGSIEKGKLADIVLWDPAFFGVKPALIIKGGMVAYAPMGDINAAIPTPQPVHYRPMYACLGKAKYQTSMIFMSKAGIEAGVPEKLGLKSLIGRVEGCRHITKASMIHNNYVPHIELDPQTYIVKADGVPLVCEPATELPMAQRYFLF

## Nc1ccc(S(=O)(=O)Nc2cccc3ccc(OP(N)(N)=O)cc23)cc1 [this compound, 8-[(4-aminophenyl)sulfonyl]amino-2-naphthalenyl phosphorodiamidate]
  IC50: 0.4 µM

Reference: patent US4225526A, “8-[(4-Aminophenyl)sulfonyl]amino-2-naphthalenyl phosphorodiamidate” (Morton-Norwich Products, Inc., priority 1979, dated 1980)
